Laboratory results from US20240043404A1 (AbbVie Inc., priority 2009, published 2024).

tested on: RS4;11 cells; test: RS4;11 cell viability assay (CellTiter Glo); format: cell-based, human; conditions: Homo sapiens, RS4-11, 48 h, 50,000 cells per well, 10% human serum, 48 hours; read-out: RS4; 11 EC50 Values;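 note: acute lymphoblastic leukemia line RS4,11, EC50 derived from percentage of viable cells after treatment relative to untreated controls, cell killing taken as a measure of Bcl-2 inhibition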
Procedure: The acute lymphoblastic leukemia (ALL) cell line RS4;11 was used as the primary human cell line to assess the cellular activity of Bcl-2 selective agents in vitro and their efficacy in vivo.
Cell cytotoxicity EC50 values were assessed using CellTiter Glo (Promega) according to the manufacturer's recommendations. The EC50 values were determined as a percentage of viable cells following treatment compared to the untreated control cells.

Compound	EC50 [nM]
CC1(C)CCC(CC2CCN(c3ccc(C(=O)NS(=O)(=O)c4cnc(OCC5(O)CCC(F)(F)CC5)c(Cl)c4)c(Oc4cnc5[nH]ccc5c4)c3)CC2)=C(c2ccc(Cl)cc2)C1 [Example 302, N-({5-chloro-6-[(4,4-difluoro-1-hydroxycyclohexyl)methoxy]pyridin-3-yl}sulfonyl)-4-(4-{[2-(4-chlorophenyl)-4,4-dimethylcyclohex-1-en-1-yl]methyl}piperidin-1-yl)-2-(1H-pyrrolo[2,3-b]pyridin-5-yloxy)benzamide]	381
CO[C@H]1CC[C@@H](COc2ncc(S(=O)(=O)NC(=O)c3ccc(N4CCN(CC5=C(c6ccc(Cl)cc6)CC(C)(C)CC5)CC4)cc3Oc3cnc4[nH]ccc4c3)cc2Cl)CC1 [Example 211, Cis-N-({5-chloro-6-[(4-methoxycyclohexyl)methoxy]pyridin-3-yl}sulfonyl)-4-(4-{[2-(4-chlorophenyl)-4,4-dimethylcyclohex-1-en-1-yl]methyl}piperazin-1-yl)-2-(1H-pyrrolo[2,3-b]pyridin-5-yloxy)benzamide]	307
CC1(C)CCC(CN2CCN(c3ccc(C(=O)NS(=O)(=O)c4ccc(OCC5(F)CCN(C(=O)OC(C)(C)C)CC5)c([N+](=O)[O-])c4)c(Oc4cnc5[nH]ccc5c4)c3)CC2)=C(c2ccc(Cl)cc2)C1 [Example 126, tert-butyl 4-{[4-({[4-(4-{[2-(4-chlorophenyl)-4,4-dimethylcyclohex-1-en-1-yl]methyl}piperazin-1-yl)-2-(1H-pyrrolo[2,3-b]pyridin-5-yloxy)benzoyl]amino}sulfonyl)-2-nitrophenoxy]methyl}-4-fluoropiperidine-1-carboxylate]	53.6
CC1(C)CCC(CN2CCN(c3ccc(C(=O)NS(=O)(=O)c4ccc(NCC5CN(C6CC6)CCO5)c([N+](=O)[O-])c4)c(Oc4cnc5[nH]ccc5c4)c3)CC2)=C(c2ccc(Cl)cc2)C1 (stereo not shown) [Example 218, 4-(4-{[2-(4-chlorophenyl)-4,4-dimethylcyclohex-1-en-1-yl]methyl}piperazin-1-yl)-N-[(4-{[(4-cyclopropylmorpholin-2-yl)methyl]amino}-3-nitrophenyl)sulfonyl]-2-(1H-pyrrolo[2,3-b]pyridin-5-yloxy)benzamide]	7.29
CC1(C)CCC(CN2CCN(c3ccc(C(=O)NS(=O)(=O)c4ccc(N[C@H]5CC[C@H](NS(C)(=O)=O)CC5)c([N+](=O)[O-])c4)c(Oc4cnc5[nH]ccc5c4)c3)CC2)=C(c2ccc(Cl)cc2)C1 [Example 189, Trans-4-(4-{[2-(4-chlorophenyl)-4,4-dimethylcyclohex-1-en-1-yl]methyl}piperazin-1-yl)-N-{[4-({4-[(methylsulfonyl)amino]cyclohexyl}amino)-3-nitrophenyl]sulfonyl}-2-(1H-pyrrolo[2,3-b]pyridin-5-yloxy)benzamide]	144
CC1(C)CCC(CN2CCN(c3ccc(C(=O)NS(=O)(=O)c4ccc(NCC5(F)CCOCC5)c([N+](=O)[O-])c4)c(Oc4cnc5[nH]ccc5c4)c3)CC2)=C(c2ccc(Cl)cc2)C1 [Example 138, 4-(4-{[2-(4-chlorophenyl)-4,4-dimethylcyclohex-1-en-1-yl]methyl}piperazin-1-yl)-N-[(4-{[(4-fluorotetrahydro-2H-pyran-4-yl)methyl]amino}-3-nitrophenyl)sulfonyl]-2-(1H-pyrrolo[2,3-b]pyridin-5-yloxy)benzamide]	1.52
CC1(C)CCC(CN2CCN(c3ccc(C(=O)NS(=O)(=O)c4ccc(NCCCN(C5CC5)C5COC5)c([N+](=O)[O-])c4)c(Oc4cnc5[nH]ccc5c4)c3)CC2)=C(c2ccc(Cl)cc2)C1 [Example 311, 4-(4-{[2-(4-chlorophenyl)-4,4-dimethylcyclohex-1-en-1-yl]methyl}piperazin-1-yl)-N-{[4-({3-[cyclopropyl(oxetan-3-yl)amino]propyl}amino)-3-nitrophenyl]sulfonyl}-2-(1H-pyrrolo[2,3-b]pyridin-5-yloxy)benzamide]	35.8
CO[C@H]1CC[C@@H](COc2ccc(S(=O)(=O)NC(=O)c3ccc(N4CCN(CC5=C(c6ccc(Cl)cc6)CC(C)(C)CC5)CC4)cc3Oc3cnc4[nH]ccc4c3)cc2[N+](=O)[O-])CC1 [Example 121, 2-(1H-pyrrolo[2,3-b]pyridin-5-yloxy)-4-(4-((2-(4-chlorophenyl)-4,4-dimethylcyclohex-1-enyl)methyl)piperazin-1-yl)-N-(4-((cis-4-methoxycyclohexyl)methoxy)-3-nitrophenylsulfonyl)benzamide]	59.7
CC1(C)CCC(CN2CCN(c3ccc(C(=O)NS(=O)(=O)c4cnc(OCC5(F)CCOCC5)c(C#N)c4)c(Oc4cnc5[nH]ccc5c4)c3)CC2)=C(c2ccc(Cl)cc2)C1 [Example 56, 4-(4-{[2-(4-chlorophenyl)-4,4-dimethylcyclohex-1-en-1-yl]methyl}piperazin-1-yl)-N-({5-cyano-6-[(4-fluorotetrahydro-2H-pyran-4-yl)methoxy]pyridin-3-yl}sulfonyl)-2-(1H-pyrrolo[2,3-b]pyridin-5-yloxy)benzamide]	86.5
CCOC(=O)N1CCN(c2ccc(S(=O)(=O)NC(=O)c3ccc(N4CCN(CC5=C(c6ccc(Cl)cc6)CC(C)(C)CC5)CC4)cc3Oc3cnc4[nH]ccc4c3)cc2[N+](=O)[O-])CC1 [Example 222, ethyl 4-(4-{[4-(4-{[2-(4-chlorophenyl)-4,4-dimethylcyclohex-1-en-1-yl]methyl}piperazin-1-yl)-2-(1H-pyrrolo[2,3-b]pyridin-5-yloxy)benzoyl]sulfamoyl}-2-nitrophenyl)piperazine-1-carboxylate]	> 1000
CC1(C)CCC(CN2CCN(c3ccc(C(=O)NS(=O)(=O)c4ccc(N[C@H]5CC[C@H](N(CC6CC6)CC6CC6)CC5)c([N+](=O)[O-])c4)c(Oc4cnc5[nH]ccc5c4)c3)CC2)=C(c2ccc(Cl)cc2)C1 [Example 64, Trans-N-{[4-({4-[bis(cyclopropylmethyl)amino]cyclohexyl}amino)-3-nitrophenyl]sulfonyl}-4-(4-{[2-(4-chlorophenyl)-4,4-dimethylcyclohex-1-en-1-yl]methyl}piperazin-1-yl)-2-(1H-pyrrolo[2,3-b]pyridin-5-yloxy)benzamide]	0.25
CC1(C)CCC(CN2CCN(c3ccc(C(=O)NS(=O)(=O)c4ccc(NCCCNC5CC5)c([N+](=O)[O-])c4)c(Oc4cnc5[nH]ccc5c4)c3)CC2)=C(c2ccc(Cl)cc2)C1 [Example 291, 4-(4-{[2-(4-chlorophenyl)-4,4-dimethylcyclohex-1-en-1-yl]methyl}piperazin-1-yl)-N-[(4-{[3-(cyclopropylamino)propyl]amino}-3-nitrophenyl)sulfonyl]-2-(1H-pyrrolo[2,3-b]pyridin-5-yloxy)benzamide]	16.1
O=C(NS(=O)(=O)c1ccc(OCC2(F)CCOCC2)c(Cl)c1)c1ccc(N2CCN(CC3=C(c4ccc(Cl)cc4)CCC4(CCN(C5COC5)CC4)C3)CC2)cc1Oc1cnc2[nH]ccc2c1 [Example 325, N-({3-chloro-4-[(4-fluorotetrahydro-2H-pyran-4-yl)methoxy]phenyl}sulfonyl)-4-(4-{[9-(4-chlorophenyl)-3-(oxetan-3-yl)-3-azaspiro[5.5]undec-8-en-8-yl]methyl}piperazin-1-yl)-2-(1H-pyrrolo[2,3-b]pyridin-5-yloxy)benzamide]	12.3
COc1cccc(CNc2ccc(S(=O)(=O)NC(=O)c3ccc(N4CCN(CC5=C(c6ccc(Cl)cc6)CC(C)(C)CC5)CC4)cc3Oc3cnc4[nH]ccc4c3)cc2[N+](=O)[O-])c1 [Example 176, 4-(4-{[2-(4-chlorophenyl)-4,4-dimethylcyclohex-1-en-1-yl]methyl}piperazin-1-yl)-N-({4-[(3-methoxybenzyl)amino]-3-nitrophenyl}sulfonyl)-2-(1H-pyrrolo[2,3-b]pyridin-5-yloxy)benzamide]	134
O=C(NS(=O)(=O)c1ccc(NCC2CCOCC2)c([N+](=O)[O-])c1)c1ccc(N2CCN(CC3=C(c4ccc(Cl)cc4)CCC(CF)(CF)C3)CC2)cc1Oc1cnc2[nH]ccc2c1 [Example 353, 4-(4-{[2-(4-chlorophenyl)-5,5-bis(fluoromethyl)cyclohex-1-en-1-yl]methyl}piperazin-1-yl)-N-({3-nitro-4-[(tetrahydro-2H-pyran-4-ylmethyl)amino]phenyl}sulfonyl)-2-(1H-pyrrolo[2,3-b]pyridin-5-yloxy)benzamide]	5.05
CC1(C)CCC(CN2CCN(c3ccc(C(=O)NS(=O)(=O)c4ccc(OCCOC5CCOC5)c([N+](=O)[O-])c4)c(Oc4cnc5[nH]ccc5c4)c3)CC2)=C(c2ccc(Cl)cc2)C1 (stereo not shown) [Example 275, 4-(4-{[2-(4-chlorophenyl)-4,4-dimethylcyclohex-1-en-1-yl]methyl}piperazin-1-yl)-N-({3-nitro-4-[2-(tetrahydrofuran-3-yloxy)ethoxy]phenyl}sulfonyl)-2-(1H-pyrrolo[2,3-b]pyridin-5-yloxy)benzamide]	143
CC1(C)CCC(CN2CCN(c3ccc(C(=O)NS(=O)(=O)c4cnc(OC[C@@H]5CN(CC#N)CCO5)c(Cl)c4)c(Oc4cnc5[nH]ccc5c4)c3)CC2)=C(c2ccc(Cl)cc2)C1 [Example 244, N-[(5-chloro-6-{[(2S)-4-(cyanomethyl)morpholin-2-yl]methoxy}pyridin-3-yl)sulfonyl]-4-(4-{[2-(4-chlorophenyl)-4,4-dimethylcyclohex-1-en-1-yl]methyl}piperazin-1-yl)-2-(1H-pyrrolo[2,3-b]pyridin-5-yloxy)benzamide]	794
CC1(C)CCCC(c2ccc(Cl)cc2)=C1CN1CCN(c2ccc(C(=O)NS(=O)(=O)c3ccc(NCC4CCOCC4)c([N+](=O)[O-])c3)c(Oc3cnc4[nH]ccc4c3)c2)CC1 [Example 101, 4-(4-{[2-(4-chlorophenyl)-6,6-dimethylcyclohex-1-en-1-yl]methyl}piperazin-1-yl)-N-({3-nitro-4-[(tetrahydro-2H-pyran-4-ylmethyl)amino]phenyl}sulfonyl)-2-(1H-pyrrolo[2,3-b]pyridin-5-yloxy)benzamide]	299

same assay, conditions: Table 5, direct comparison Z=N with corresponding analogs Z=C; read-out: RS4; 11 EC50

Compound	EC50 [nM]
4-{4-[(4′-chloro-1,1′-biphenyl-2-yl)methyl]piperazin-1-yl}-2-(1H-indol-5-yloxy)-N-({3-nitro-4-[(tetrahydro-2H-pyran-4-ylmethyl)amino]phenyl}sulfonyl) benzamide [Example 87]	1180
